Target: Cathepsin S (Homo sapiens, UniProt P25774)
Assay: Enzyme Inhibition Assay
Details: pH 5.5; 37 °C
Method: The recombinant human cathepsin enzyme was preincubated with inhibitor for 20 minutes prior to addition of substrate. The substrate hydrolysis was monitored by the increase in fluorescence at an excitation wavelength of 380nm and an emission wavelength of 450 nm on a Gemini EM fluorometer. The reaction progress curve was fitted to the Morrison equation using PlateKi (BioKin) and the apparent inhibition constant was converted to the inhibition constant (Ki) for competitive inhibitors.

Cathepsin S, sequence (P25774 whole entry): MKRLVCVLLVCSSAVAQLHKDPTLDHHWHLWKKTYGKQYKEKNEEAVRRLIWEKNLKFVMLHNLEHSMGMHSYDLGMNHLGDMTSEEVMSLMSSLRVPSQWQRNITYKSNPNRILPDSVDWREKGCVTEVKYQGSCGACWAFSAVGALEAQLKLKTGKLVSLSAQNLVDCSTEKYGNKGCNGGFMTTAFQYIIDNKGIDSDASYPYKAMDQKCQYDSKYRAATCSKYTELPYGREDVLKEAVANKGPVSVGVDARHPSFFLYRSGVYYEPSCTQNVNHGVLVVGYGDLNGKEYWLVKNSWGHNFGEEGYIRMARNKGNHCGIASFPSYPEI

Question: For `O=C(N[C@@H](CCc1ccccc1)CNc1ccc(OC(F)(F)F)cc1)[C@H](CCC1CCCC1)CC(=O)N1CCOCC1` [(2R)-2-(2-cyclopentylethyl)-4-(morpholin-4-yl)-4-oxo-N-[(2S)-4-phenyl-1-{[4-(trifluoromethoxy)phenyl]amino}butan-2-yl]butanamide], which Ki is on record?
Answer: The Ki was 20 nM.
